Results as given in ChEMBL document CHEMBL4145552, “Marine derived xyloketal derivatives exhibit anti-stress and anti-ageing effects through HSF pathway in Caenorhabditis elegans” (2018).
Calls of active or inactive are those of the source. The rule behind the calls is not given here.

Assays:
Caenorhabditis elegans [1] = assay: Protection against thermal stress in Caenorhabditis elegans N2 assessed as increase in mean survival time at 100 uM at 37 degC measured every 1 hr post treatment relative to control; assay type: functional
Caenorhabditis elegans [2] = assay: Protection against thermal stress in Caenorhabditis elegans N2 assessed as increase in mean survival time at 300 uM at 37 degC measured every 1 hr post treatment relative to control; assay type: functional
Caenorhabditis elegans [3] = assay: Anti-ageing activity in Caenorhabditis elegans N2 assessed as increase in rate of health span on bending in lifespan at 300 uM measured for 3 secs at 3 days time interval up to 16 days relative to control; assay type: functional
Caenorhabditis elegans [4] = assay: In vivo activation of HSF-1 pathway in Caenorhabditis elegans N2 assessed as increase in HSP70 protein expression by Western blot analysis relative to control; assay type: functional
Caenorhabditis elegans [5] = assay: Protection against thermal stress in Caenorhabditis elegans PS3551 harboring HSF-1 mutant assessed as mean survival time at 37 degC measured every 1 hr up to 8 hrs post treatment (reference value: 4.37 +/- 0.1 hrs); assay type: functional
Caenorhabditis elegans [6] = assay: Anti-ageing activity in Caenorhabditis elegans N2 assessed as increase in life span at 300 uM relative to control; assay type: functional
Caenorhabditis elegans [7] = assay: Anti-ageing activity in Caenorhabditis elegans PS3551 harboring HSF-1 mutant assessed as increase in life span by measuring mean survival time measured up to 20 days post treatment (reference value: 10.89 +/- 0.17 day); assay type: functional
Caenorhabditis elegans [8] = assay: Anti-ageing activity in Caenorhabditis elegans N2 assessed as increase in rate of health span on pumping in lifespan at 300 uM measured for 10 secs at 2 days time interval up to 21 days by dissecting microscopic method relative to control; assay type: functional
Caenorhabditis elegans [9] = assay: Anti-ageing activity in Caenorhabditis elegans N2 assessed as increase in rate of health span in maximal lifespan at 300 uM; assay type: functional, organism-based
Caenorhabditis elegans [10] = assay: Protection against amyloid beta aggregation-induced paralysis in Caenorhabditis elegans CL4176 harboring temperature-inducible human amyloid beta (3 to 42) transgene assessed as time delay in progression of paralysis at 26 degC after 36 hrs; assay type: functional

Row | Compound | Activity (Caenorhabditis elegans [1]) | further results
1 | C[C@H]1CO[C@]2(C)Oc3c(c4c(c5c3C[C@@H]3[C@@H](C)CO[C@]3(C)O5)CN(c3ccc(Cl)cc3)CO4)C[C@H]12 | Active | –
2 | CCCCOc1cc2c(c3c1C[C@@H]1[C@@H](C)CO[C@]1(C)O3)C[C@@H]1[C@@H](C)CO[C@]1(C)O2 | Active | Activity (Caenorhabditis elegans [2]): Active
3 | C[C@H]1CO[C@]2(C)Oc3c(c(O)c(C(=O)O)c4c3C[C@@H]3[C@@H](C)CO[C@]3(C)O4)C[C@H]12 | Active | –
4 | COC(=O)C(Cc1cc2ccccc2[nH]1)NC(=O)c1c(O)c2c(c3c1O[C@@]1(C)OC[C@H](C)[C@H]1C3)O[C@@]1(C)OC[C@H](C)[C@H]1C2 (stereo not given in full) | Active | –
5 | C[C@H]1CO[C@]2(C)Oc3cc(O)c4c(c3C[C@H]12)O[C@@]1(C)OC[C@H](C)[C@H]1C4 | Active | Activity (Caenorhabditis elegans [2]): Active
6 | CCCCSC(=O)c1c(O)c2c(c3c1OC1OCCCC1C3)OC1OCCCC1C2 (stereo not given) | Active | –
7 | COC(=O)CNC(=O)c1c(O)c2c(c3c1O[C@@]1(C)OC[C@H](C)[C@H]1C3)O[C@@]1(C)OC[C@H](C)[C@H]1C2 | Active | Activity (Caenorhabditis elegans [2]): Active
8 | C[C@H]1CO[C@]2(C)Oc3c(c(O)c(C(=O)Nc4ccc(F)cc4)c4c3C[C@@H]3[C@@H](C)CO[C@]3(C)O4)C[C@H]12 | Active | –
9 | C[C@H]1CO[C@]2(C)Oc3c(c4c(c5c3C[C@@H]3[C@@H](C)CO[C@]3(C)O5)CN(c3ccc(F)cc3)CO4)C[C@H]12 | Active | –
10 | C[C@H]1CO[C@]2(C)Oc3c(c4c(c5c3C[C@@H]3[C@@H](C)CO[C@]3(C)O5)CN(CCOCCO)CO4)C[C@H]12 | Active | –
11 | COC(=O)c1c(O)c2c(c3c1O[C@@]1(C)OC[C@H](C)[C@H]1C3)O[C@@]1(C)OC[C@H](C)[C@H]1C2 | Active | Activity (Caenorhabditis elegans [2]): Active
12 | C[C@H]1CO[C@]2(C)Oc3c(c4c(c5c3C[C@@H]3[C@@H](C)CO[C@]3(C)O5)CN(c3ccc([N+](=O)[O-])cc3)CO4)C[C@H]12 | inactive | –
13 | COc1ccc(NC(=O)c2c(O)c3c(c4c2O[C@@]2(C)OC[C@H](C)[C@H]2C4)O[C@@]2(C)OC[C@H](C)[C@H]2C3)cc1 | Active | –
14 | C[C@H]1CO[C@]2(C)Oc3c(c4c(c5c3C[C@@H]3[C@@H](C)CO[C@]3(C)O5)CN(c3ccc(C(=O)O)cc3)CO4)C[C@H]12 | Active | –
15 | C[C@H]1CO[C@]2(C)Oc3cc(OC/C=C/c4ccccc4)c4c(c3C[C@H]12)O[C@@]1(C)OC[C@H](C)[C@H]1C4 | inactive | –
16 | COc1ccc(N2COc3c4c(c5c(c3C2)O[C@@]2(C)OC[C@H](C)[C@H]2C5)O[C@@]2(C)OC[C@H](C)[C@H]2C4)cc1 | Active | –
17 | O=c1c(O)c(-c2ccc(O)c(O)c2)oc2cc(O)cc(O)c12 [QUERCETIN] | 8.81% | –
18 | C[C@H]1CO[C@]2(C)Oc3c(c4c(c5c3C[C@@H]3[C@@H](C)CO[C@]3(C)O5)CN(c3ccccc3)CO4)C[C@H]12 | inactive | –
19 | COC(=O)c1c(O)c2c(c3c1OC1OCCCC1C3)OC1OCCCC1C2 (stereo not given) | Active | –
20 | CNC(=O)c1c(O)c2c(c3c1OC1OCCCC1C3)OC1OCCCC1C2 (stereo not given) | Active | –
21 | COC1(C)CCc2c(cc(O)c3c2OC(C)(OC)CC3)O1 (stereo not given) | Active | –
22 | C[C@H]1CO[C@]2(C)Oc3c(c4c(c5c3C[C@@H]3[C@@H](C)CO[C@]3(C)O5)CN(c3ccc(Br)cc3)CO4)C[C@H]12 | Active | Activity (Caenorhabditis elegans [2]): Active
23 | C[C@H]1CO[C@]2(C)Oc3c(c4c(c5c3C[C@@H]3[C@@H](C)CO[C@]3(C)O5)CN(C)CO4)C[C@H]12 | Active | –
24 | CC1CC2Cc3c(cc(O)c4c3OC3(C)OC(C)CC3C4)OC2(C)O1 (stereo not given) | inactive | –
25 | CCCCN1COc2c3c(c4c(c2C1)O[C@@]1(C)OC[C@H](C)[C@H]1C4)O[C@@]1(C)OC[C@H](C)[C@H]1C3 | Active | –
26 | C[C@H]1CO[C@]2(C)Oc3c(c(O)c(C(=O)NCCc4ccc(O)cc4)c4c3C[C@@H]3[C@@H](C)CO[C@]3(C)O4)C[C@H]12 | Active | –
27 | C[C@H]1CO[C@]2(C)Oc3c(c4c(c5c3C[C@@H]3[C@@H](C)CO[C@]3(C)O5)CN(c3ccc(I)cc3)CO4)C[C@H]12 | Active | –
28 | COC(=O)C(Cc1ccc(O)cc1)NC(=O)c1c(O)c2c(c3c1O[C@@]1(C)OC[C@H](C)[C@H]1C3)O[C@@]1(C)OC[C@H](C)[C@H]1C2 (stereo not given in full) | Active | Activity (Caenorhabditis elegans [2]): Active
29 | Oc1cc2c(c3c1CC1CCCOC1O3)CC1CCCOC1O2 (stereo not given) | Active | –
30 | C[C@H]1CO[C@]2(C)Oc3c(c4c(c5c3C[C@@H]3[C@@H](C)CO[C@]3(C)O5)CN(c3ccc(O)cc3)CO4)C[C@H]12 | 15.38% | Activity (Caenorhabditis elegans [3]): <=22%; Activity (Caenorhabditis elegans [4]): 28%; MST (Caenorhabditis elegans [5]): 4.32 h; Activity (Caenorhabditis elegans [2]): <=23.96%; Activity (Caenorhabditis elegans [6]): 11%; MST (Caenorhabditis elegans [7]): 10.99 days; Activity (Caenorhabditis elegans [8]): 16%; Activity (Caenorhabditis elegans [9]): Active; Time (Caenorhabditis elegans [10]): 2.8 h
